Data: US6683157B2, “Variant human α7 acetylcholine receptor subunit, and methods of production and use thereof” (priority 1996, dated 2004)
“Also recorded” adds a separate entry of the source. Counter-ions that a name gives are not always drawn. Like-named read-outs stand apart in the source and are kept apart here.

What was measured:
[1] = biological target: T1, human α7V274T nAChR (Homo sapiens, UniProt P36544, V274T); assay: Agonist concentration-response, two-electrode voltage-clamp in Xenopus laevis oocytes; format: cell-based
T1 construct: This created a new cDNA encoding a full length α7 subunit; expressed in transfected cells

[2] = biological target: T2, human α7 wild type nAChR (Homo sapiens, UniProt P36544); assay: as above; format: cell-based; settings: for Hill coefficient: Hill equation fit
T2 construct: This created a new cDNA encoding a full length α7 subunit; expressed in transfected cells; host or cells: Xenopus laevis oocytes injected with receptor RNA or DNA

[3] = tested on: chick α7V251T nAChR; settings: cited from earlier work
[4] = biological target: chick α7V251T nAChR (Gallus gallus, UniProt P22770, V274T); settings: 10 μM DHβE; cited from earlier work
[5] = biological target: T1, human α7V274T nAChR; assay: nAChR antagonists applied alone as agonists, current response in Xenopus oocytes; format: cell-based; settings: for % Activation, 10 μM ACh: compared to activation by 10 μM ACh, ligand μM: DHβE 10, d-TC 1, MLA 0.01, MEC 10, ATROP 2, mean ± s.e.m. (n)
[6] = biological target: T2, human α7 wild type nAChR; assay: as above; format: cell-based; settings: ligand μM: DHβE 10, d-TC 1, MLA 0.01, MEC 10, ATROP 2
[7] = biological target: T2, human α7 wild type nAChR; assay: Inhibition of the response to ACh in Xenopus oocytes; format: cell-based; settings: ligand μM: DHβE 10, d-TC 1, MLA 0.01, MEC 10, ATROP 2; for % Inhibition, % of 200 μM ACh: inhibition of response to 200 μM ACh; for % Inhibition, % of 10 mM ACh: inhibition of response to 10 mM ACh
[8] = biological target: T1, human α7V274T nAChR; assay: as above; format: cell-based; settings: for % Inhibition, 1 μM ACh: inhibition of response to 1 μM ACh; for % Inhibition, 1 μM ACh / % Inhibition, 10 μM ACh: ligand μM: DHβE 10, d-TC 1, MLA 0.01, MEC 10, ATROP 2; for % Inhibition, 10 μM ACh: inhibition of response to 10 μM ACh; for inhibition of ACh response: MEC 10 μM against 1 μM ACh in three of the five oocytes inhibited by atropine
[9] = biological target: human α7 nAChR (Homo sapiens, UniProt P36544); settings: cited from earlier work
[10] = biological target: chick α7 nAChR (Gallus gallus, UniProt P22770); settings: cited from earlier work
[11] = biological target: chick α7L247T nAChR (Gallus gallus, UniProt P22770, L270T); settings: cited from earlier work

Compound	Hill coefficient ([1]; Hill equation fit)	% Activation, 10 μM ACh [5]	% Activation, % of 10 mM ACh [6]	% Inhibition, % of 200 μM ACh [7]	% Inhibition, % of 10 mM ACh [7]	% Inhibition, 1 μM ACh [8]	% Inhibition, 10 μM ACh [8]	other results
CN1CCCC1c1cccnc1 (single isomer, unassigned; (-)) [(−)-nicotine]	1.3±0.2	–	–	–	–	–	–	Hill coefficient [2]: 1.2±0.2
Cc1ncccc1OC[C@@H]1CCCN1 [ABT-089]	–	–	–	–	–	–	–	EC50 [1]: 28 ± 3 µM; efficacy ([1]; responses normalized to the response to ACh): 40±1%; agonist type [2]: partial agonists
CC(=O)OCC[N+](C)(C)C [ACh, Acetylocholine chloride]	1.8±0.2	–	–	–	–	–	–	increase in ACh potency versus chick α7 wild type [3]: 180 fold; Hill coefficient [2]: 0.94±0.09
Br.CO[C@H]1CC=C2CCN3CCC4=C(CC(=O)OC4)[C@]23C1 [DHβE, Dihydro-β-erythroidine hydrobromide]	–	4 ± 1 (4) %	−0.2 ± 0.1 (5) %	41 ± 10 (4) %	23 ± 2 (4) %	69 ± 5 (4) %	52 ± 6 (4) %	response as % of the ACh response [4]: 66%
C[N+]1(C)CCN(c2ccccc2)CC1 [DMPP, 1,1-dimethyl-4-phenylpiperazinium]	–	–	–	–	–	–	–	agonist type [9]: highly efficacious agonist; agonist type [10]: very weak partial agonist
COc1ccc(/C=C2\CCCN=C2c2cccnc2)c(OC)c1 [GTS-21]	1.5±0.1	–	–	–	–	–	–	agonist type [1]: full agonist; EC50 ([1]; peak amplitude normalized to ACh response, Hill equation fit, holding potential −60 mV): 4.3 ± 0.3 µM; agonist type [2]: partial agonists
CNC1(C)C2CCC(C2)C1(C)C (centres unmarked) [MEC, mecamylamine hydrochloride]	–	−1.9 ± 0.2 (4) %	−0.3 ± 0.2 (3) %	82 ± 1 (3) %	85 ± 3 (3) %	101 ± 1 (4) %	53 ± 2 (4) %	inhibition of ACh response [8]: completely blocked
COc1cc2c3cc1Oc1cc(ccc1O)C[C@@H]1c4c(cc(OC)c(O)c4Oc4ccc(cc4)C[C@@H]3N(C)CC2)CC[N+]1(C)C.Cl.O.O.O.O.O.[Cl-] [d-TC, d-tubocurarine chloride]	–	−2 ± 1 (4) %	−0.1 ± 0.1 (5) %	28 ± 2 (4) %	25 ± 3 (4) %	99 ± 1 (4) %	97 ± 3 (3) %	activation of inward current [11]: full response; outward current amplitude, % of the maximal inward current response to ACh ([5]; MLA 10 nM, MEC 10 μM, d-TC 1 μM (d-TC in two of four oocytes)): 3-5%; current response to ligand alone ([5]; d-TC 1 μM, atropine 2 μM): did not elicit agonist-like inward currents; also recorded: did not activate inward currents; inhibition of ACh response [8]: potent antagonist
